Measurements as given in the NIST ThermoML archive (doi:10.1016/j.jct.2018.09.012).

Columns and labels:
[1] = for Normal melting temperature: Crystal; for vapor or sublimation pressure: Gas chromatography
[2] = Molar enthalpy of transition or fusion; conditions: Crystal; DSC

c1ccc2ccccc2c1 [naphthalene]
Conditions	Normal melting temperature [°C]
[1], DTA	79.2

Conditions	Molar enthalpy of transition or fusion [kcal/mol]
[2]	4.57

c1ccc2c(c1)oc1ccccc12 [dibenzo[bd]furan]
[1]
Conditions	vapor or sublimation pressure [kPa]
298.15 K, Metastable liquid	0.0011
310 K, Metastable liquid	0.0031
320 K, Metastable liquid	0.007
330 K, Metastable liquid	0.015
340 K, Metastable liquid	0.03
350 K, Metastable liquid	0.058
360 K, Liquid	0.11
370 K, Liquid	0.18
380 K, Liquid	0.31
390 K, Liquid	0.51
400 K, Liquid	0.8
410 K, Liquid	1.2
420 K, Liquid	1.8
430 K, Liquid	2.6
440 K, Liquid	3.7
450 K, Liquid	5.2

CC1(C)CCC[C@]2(C)[C@H]3CCO[C@]3(C)CC[C@@H]12 [(-)-Ambroxide]
[1]
Conditions	vapor or sublimation pressure [kPa]
298.15 K, Metastable liquid	0.00012
310 K, Metastable liquid	0.00039
320 K, Metastable liquid	0.00096
330 K, Metastable liquid	0.0023
340 K, Metastable liquid	0.0049
350 K, Liquid	0.01
360 K, Liquid	0.02
370 K, Liquid	0.038
380 K, Liquid	0.069
390 K, Liquid	0.12
400 K, Liquid	0.2
410 K, Liquid	0.32
420 K, Liquid	0.51
430 K, Liquid	0.77
440 K, Liquid	1.1
450 K, Liquid	1.7
460 K, Liquid	2.4
470 K, Liquid	3.4
480 K, Liquid	4.7
490 K, Liquid	6.3
500 K, Liquid	8.4

[1]
Conditions	Normal melting temperature [°C]
DTA	72.7
visual observation	75.00

Conditions	Molar enthalpy of transition or fusion [kcal/mol]
[2]	4.85

CC1COCc2cc3c(cc21)C(C)(C)C(C)C3(C)C (stereo not drawn) [Galaxolide]
[1], Metastable liquid
Conditions	vapor or sublimation pressure [kPa]
298.15 K	2.6e-05
310 K	9.9e-05
320 K	0.00027
330 K	0.00071
340 K	0.0017
350 K	0.0038
360 K	0.0081
370 K	0.016
380 K	0.032
390 K	0.058
400 K	0.1
410 K	0.16
420 K	0.29
430 K	0.46
440 K	0.72
450 K	1.1
460 K	1.6
470 K	2.4
480 K	3.4
490 K	4.8
500 K	6.6
